Read-outs that look alike come from different tables or passages of the source.
Experiments:
[1] = test system: transplanted tumor of human non-small cell lung cancer cell H1299
[2] = test system: transplanted tumor of human pancreatic cancer cell PANC-1; test: PANC-1 transplanted tumor in nude mice; conditions: for Tumor Volume (mm3) (d 1): d1
[3] = test system: transplanted tumor of human renal clear cell adenocarcinoma cell 786-O; test: 786-O transplanted tumor in nude mice; conditions: for Tumor Volume (mm3) (d 1): d1
Procedure, shortened: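 Nude mice inoculated subcutaneously with 786-O cells in matrigel; at ≥100 mm^3 tumors, groups of 6 dosed intragastrically at 25, 50 or 100 mg/kg for 30 days. Tumor size measured every 3 days (V=a×b^2/2, RTV, T/C); tumors weighed at sacrifice for growth inhibition rate versus model group.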

[4] = H1299, 25 mg/kg (low dose) i.g. 30 days
[5] = H1299, 50 mg/kg (medium dose) i.g. 30 days
[6] = H1299, 100 mg/kg (high dose) i.g. 30 days
[7] = PANC-1, 12.5 mg/kg (low dose) i.g. 30 days
[8] = PANC-1, 25 mg/kg (medium dose) i.g. 30 days
[9] = PANC-1, 50 mg/kg (high dose) i.g. 30 days
[10] = 786-O, high dose (100 mg/kg in method) i.g. 30 days
[11] = 786-O, low dose (25 mg/kg in method) i.g. 30 days
[12] = 786-O, medium dose (50 mg/kg in method) i.g. 30 days

## CCC(=O)O[C@@H]1CC(=O)O[C@H](C)C/C=C/C=C/[C@H](O[C@H]2CC[C@H](N(C)C)[C@@H](C)O2)[C@H](C)C[C@H](CC=O)[C@H](O[C@@H]2O[C@H](C)[C@@H](O[C@H]3C[C@@](C)(O)[C@@H](OC(=O)CC(C)C)[C@H](C)O3)[C@H](N(C)C)[C@H]2O)[C@H]1OC [Isovaleryl spiramycin III, isovaleryl spiramycin III]
[1]; [4]
  Inhibition Rate (tumor growth inhibition rate): 13.11%
  Relative Tumor Proliferation Rate (T/C): 89.88%
  Relative Tumor Volume (RTV): 11.52 ± 2.51
  Tumor Volume (d 1): 137.58 ± 14.95 mm3
  Tumor Volume (d 30): 1565.97 ± 277.97 mm3
  Tumor Weight: 1.51 ± 0.30 g
[1]; [5]
  Inhibition Rate (tumor growth inhibition rate): 49.38%
  Relative Tumor Proliferation Rate (T/C): 48.11%
  Relative Tumor Volume (RTV): 6.17 ± 2.64
  Tumor Volume (d 1): 137.82 ± 17.12 mm3
  Tumor Volume (d 30): 816.87 ± 299.03 mm3
  Tumor Weight: 0.88 ± 0.20 g
[1]; [6]
  Inhibition Rate (tumor growth inhibition rate): 62.78%
  Relative Tumor Proliferation Rate (T/C): 32.43%
  Relative Tumor Volume (RTV): 4.16 ± 1.90
  Tumor Volume (d 1): 137.09 ± 12.95 mm3
  Tumor Volume (d 30): 557.82 ± 209.73 mm3
  Tumor Weight: 0.65 ± 0.17 g
[1]; H1299, low, medium and high doses, P<0.05
  tumor volume and relative tumor volume compared with the model group: significantly lower
[1]; mouse, in vivo
  mouse weight compared with the model group: no significant changes
[2]; [7]
  Inhibition Rate (tumor growth inhibition rate): 26.75%
  Tumor Weight: 1.99 ± 0.81 g
[2]; [8]
  Inhibition Rate (tumor growth inhibition rate): 39.09%
  Tumor Weight: 1.66 ± 0.66 g
[2]; PANC-1, 25 mg/kg (medium dose) i.g. 30 days, listed as isovaleryl spiramycin III
  Inhibition Rate (tumor growth inhibition rate): 39.08%
[2]; [9]
  Inhibition Rate (tumor growth inhibition rate): 61.78%
  Tumor Weight: 1.03 ± 0.54 g
[2]; PANC-1, high dose i.g. 30 days
  Relative Tumor Proliferation Rate (T/C): 34.91%
[2]; PANC-1, low dose i.g. 30 days
  Relative Tumor Proliferation Rate (T/C): 75.03%
[2]; PANC-1, low, medium and high doses, P<0.05
  tumor volume and relative tumor volume compared with the model group: significantly lower
[2]; PANC-1, medium dose i.g. 30 days
  Relative Tumor Proliferation Rate (T/C): 54.92%
[2]; PANC-1 nude mice, 12.5 mg/kg
  Relative Tumor Proliferation Rate (T/C): 75.03%
  Relative Tumor Volume (RTV): 13.13 ± 3.15
  Tumor Volume (mm3) (d 1): 137.99 ± 20.99 mm3
  Tumor Volume (mm3) (d30): 1758.49 ± 129.06 mm3
[2]; PANC-1 nude mice, 25 mg/kg
  Relative Tumor Proliferation Rate (T/C): 54.92%
  Relative Tumor Volume (RTV): 9.61 ± 1.66
  Tumor Volume (mm3) (d 1): 109.95 ± 13.42 mm3
  Tumor Volume (mm3) (d30): 1043.33 ± 113.01 mm3
[2]; PANC-1 nude mice, 50 mg/kg
  Relative Tumor Proliferation Rate (T/C): 34.90%
  Relative Tumor Volume (RTV): 5.17 ± 0.64
  Tumor Volume (mm3) (d 1): 113.14 ± 9.02 mm3
  Tumor Volume (mm3) (d30): 684.21 ± 115.00 mm3
[2]; mouse, in vivo
  mouse weight compared with the model group: no significant changes
[3]; 786-O nude mice, 25 mg/kg
  Inhibition Rate (%): 35.80%
  Relative Tumor Proliferation Rate (T/C): 73.13%
  Relative Tumor Volume (RTV): 18.90 ± 3.60
  Tumor Weight: 1.38 ± 0.42 g
  Tumor Volume (mm3) (d 1): 106.47 ± 6.86 mm3
  Tumor Volume (mm3) (d30): 1479.90 ± 458.97 mm3
[3]; 786-O nude mice, 50 mg/kg
  Inhibition Rate (%): 52.14%
  Relative Tumor Proliferation Rate (T/C): 51.33%
  Relative Tumor Volume (RTV): 9.76 ± 1.44
  Tumor Weight: 1.02 ± 0.27 g
  Tumor Volume (mm3) (d 1): 96.82 ± 8.52 mm3
  Tumor Volume (mm3) (d30): 944.60 ± 112.60 mm3
[3]; 786-O nude mice, 100 mg/kg
  Inhibition Rate (%): 62.49%
  Relative Tumor Proliferation Rate (T/C): 34.20%
  Relative Tumor Volume (RTV): 6.18 ± 0.61
  Tumor Weight: 0.80 ± 0.05 g
  Tumor Volume (mm3) (d 1): 103.26 ± 9.71 mm3
  Tumor Volume (mm3) (d30): 635.26 ± 78.22 mm3
[3]; [10]
  Relative Tumor Proliferation Rate (T/C): 34.20%
  tumor growth inhibition rate: 62.49%
[3]; [11]
  Relative Tumor Proliferation Rate (T/C): 73.13%
  tumor growth inhibition rate: 35.80%
[3]; 786-O, low, medium and high doses, P<0.05
  tumor volume and relative tumor volume compared with the model group: significantly lower
[3]; [12]
  Relative Tumor Proliferation Rate (T/C): 51.33%
  tumor growth inhibition rate: 52.14%
[3]; mouse, in vivo
  mouse weight compared with the model group: no significant changes
[3]; mouse, in vivo, 25 mg/kg
  Body Weight (g) (d1): 22.72 ± 0.78 g
  Body Weight (g) (d30): 23.85 ± 0.89 g
[3]; mouse, in vivo, 50 mg/kg
  Body Weight (g) (d1): 21.43 ± 1.08 g
  Body Weight (g) (d30): 22.33 ± 1.09 g
[3]; mouse, in vivo, 100 mg/kg
  Body Weight (g) (d1): 22.28 ± 1.72 g
  Body Weight (g) (d30): 23.43 ± 1.69 g

— patent US20200163984A1, “USE OF ISOVALERYL SPIRAMYCIN I, II AND/OR III IN MANUFACTURING MEDICAMENT FOR TREATING AND/OR PREVENTING TUMOR, AND MEDICAMENT” (SHENYANG FUYANG PHARMACEUTICAL TECHNOLOGY CO., LTD., priority 2017, published 2020)
